Read-outs that look alike come from different tables or passages of the source.
What was measured:
[1] = biological target: His tagged PTPN2 (TC45) protein (Homo sapiens (Human), UniProt P17706); assay: PTPN2 Mobility Shift Assay (MSA); assay type: biochemical; details: for Dihydrobenzofuran or Indoline x-fold>potency biochemical: x-fold versus corresponding chromane comparator, PTPN2 MSA
Protocol: Example III-1: Mobility Shift Assay (MSA) Used to Determine Potency of PTPN2 Inhibitors
Compound activity was determined using in house His tagged PTPN2 (TC45) protein (SEQ ID NO: 1) in an in vitro enzymatic reaction. The enzymatic assay used to determine activity was a mobility shift assay using a LabChip EZ Reader by Caliper Life Sciences. The enzymatic reaction was carried out in assay buffer (50 mM HEPES pH 7.5, 1 mM EGTA, 10 mM EDTA, 0.01% Tween® 20, and 2 mM DTT). The compounds were dispensed on a white 384 well ProxiPlate™ (PerkinElmer Catalog #6008289) plate using the Labcyte Echo at varying concentrations (12 point, 1:3 dilution). The enzyme (at 0.5 nM) was incubated with compound for 10 minutes at room temperature. Thereafter, the substrate (phosphorylated insulin receptor probe sequence: ((OG488)-(NH—CH2—CH2—O—CH2—CH2—O—CH2—CO)-T-R-D-I—(PY)-E-T-D-Y—Y—R—K—K—NH2) (SEQ ID NO: 2) was added at 2 μM to the plates and incubated for another 10 minutes at room temperature. Finally, a quench solution (water and 4-bromo-3-(2-oxo-2-propoxyethoxy)-5-(3-{[1-(phenylmethanesulfonyl)piperidin-4-yl]amino}phenyl)thiophene-2-carboxylic acid) was added to the plates, which were then run on the EZ Reader (excitation 488 nm, emission 530 nm) to measure % conversion (the amount of phosphorylated substrate which was de-phosphorylated by PTPN2). […] The % inhibition was then used to calculate the IC50 values.

[2] = biological target: His tagged full-length PTPN1 protein (Homo sapiens (Human), UniProt P18031); assay: PTPN1 Mobility Shift Assay (MSA); assay type: biochemical; details: enzyme 0.5 nM, substrate 2 μM
Protocol: Example III-2: Mobility Shift Assay (MSA) Used to Determine Potency of PTPN1 Inhibitors
Compound activity was determined using in house His tagged full-length PTPN1 protein (SEQ ID NO: 3) in an in vitro enzymatic reaction. The enzymatic assay used to determine activity is a mobility shift assay using a LabChip EZ Reader by Caliper Life Sciences. The enzymatic reaction was carried out in assay buffer (50 mM HEPES pH 7.5, 1 mM EGTA, 10 mM EDTA, 0.01% Tween® 20, and 2 mM DTT). The compounds were dispensed on a white 384 well ProxiPlate™ (PerkinElmer Cat ^#6008289) plate using a Labcyte Echo® liquid handler at varying concentrations (12 point, 1:3 dilution). The enzyme (at 0.5 nM) was incubated with compound for 10 minutes at room temperature. Thereafter, the substrate (phosphorylated insulin receptor probe sequence: ((OG488)-(NH—CH2—CH2—O—CH2—CH2—O—CH2—CO)-T-R-D-I—(PY)-E-T-D-Y—Y—R—K—K—NH2) (SEQ ID NO: 2) was added at 2 μM to the plates and incubated for another 10 minutes at room temperature. Finally, a quench solution (water and 4-bromo-3-(2-oxo-2-propoxyethoxy)-5-(3-{[1-(phenylmethanesulfonyl)piperidin-4-yl]amino}phenyl)thiophene-2-carboxylic acid) was added to the plates, which were then run on the EZ Reader (excitation 488 nm, emission 530 nm) to measure % conversion (the amount of phosphorylated substrate which was de-phosphorylated by PTPN1). […] The % inhibition was then used to calculate the IC50 values.

[3] = tested on: IFNγ-induced STAT1 phosphorylation (pSTAT1) in B16F10 cells; assay: B16F10 Phospho-STAT1 HTRF proximal pharmacodynamic (PD) assay; assay type: cell-based, murine; details: for EC50: B16-F10, B16F10 cells; for Dihydrobenzofuran or Indoline x-fold>potency cellular: x-fold versus corresponding chromane comparator, B16F10 pSTAT1
Protocol: Example III-3: B16F10 (Murine Melanoma Cells) Phospho-STAT1 HTRF Proximal Pharmacodynamic (PD) Assay
B16F10 cells were grown and maintained in high glucose DMEM (Gibco, Catalog^#11965-092, Dun Laoghaire Co Dublin) supplemented with 10% fetal bovine serum (Gibco, Catalog^#10082-139, Dun Laoghaire Co Dublin). The cells were pelleted and resuspended in high glucose DMEM without phenol red (Gibco, Catalog^#11054-020, Dun Laoghaire Co Dublin), supplemented with 10% fetal bovine serum and plated in a 384 well Corning plate (product^#3765, Corning, NY) at 11,000 cells per well in a volume of 20 μL. The cells were dosed with the compounds of interest using an Echo Liquid Handler (Beckman Coulter, Brea, CA) at 50 μM top dose with 3-fold dilutions down to 0.002679 μM for a 10-point dose response. The plate was incubated for 3 hours at 37° C. and subsequently treated with recombinant mouse IFNγ (R&D Systems, Catalog^#485-MI, Minneapolis, MN; 100 nM final concentration) for 10 minutes at 37° C. to induce STAT1 phosphorylation followed by 3.3 μM staurosporine treatment for 1 hour at 37° C. to terminate phosphorylation. Media was then aspirated and 20 μL of 1× lysis buffer/blocking reagent (Cisbio Phospho-STAT1 kit, part^# 63ADK026PEH, Bedford, MA) was added. The plate was placed on a plate shaker for 30 minutes at room temperature, sealed, and stored at −80° C. until needed. To thaw, the plate was placed on shaker at room temperature until completely thawed while the antibody master mix was made (1:40 Phospho-STAT1 Eu Cryptate antibody, 1:40 Phospho-STAT d2 antibody, with the detection buffer; Cisbio Phospho-STAT1 kit, part^#63ADK026PEH, Bedford, MA). The antibody master mix was then dispensed at 4 μL per well into a 384 ProxiPlate Plus (PerkinElmer, part^#6008289, Waltham, MA) and 16 μL of lysate was added from the Corning plate to the Proxiplate using a VIAFLO 384 (INTEGRA). The plate was incubated for 3 hours at room temperature and read on an EnVision® (Perkin Elmer) plate reader with laser excitation at 335 nm and emission at 665 nm. Dotmatics Studies (Bishop's Stortford, UK) was utilized to generate all dose-response curves and calculate EC50s and are shown in Table 2.

[4] = Table 3, dihydrobenzofuran or indoline compound (X = O or NH)
[5] = 3 hours compound, 100 nM mouse IFNγ 10 minutes, read-out: B16F10 IFNγ Induced pSTAT1 EC50
[6] = Mus musculus, Table 3, dihydrobenzofuran or indoline compound (X = O or NH), read-out: pSTAT1 EC50

Chain of His tagged full-length PTPN1 protein (P18031 whole entry): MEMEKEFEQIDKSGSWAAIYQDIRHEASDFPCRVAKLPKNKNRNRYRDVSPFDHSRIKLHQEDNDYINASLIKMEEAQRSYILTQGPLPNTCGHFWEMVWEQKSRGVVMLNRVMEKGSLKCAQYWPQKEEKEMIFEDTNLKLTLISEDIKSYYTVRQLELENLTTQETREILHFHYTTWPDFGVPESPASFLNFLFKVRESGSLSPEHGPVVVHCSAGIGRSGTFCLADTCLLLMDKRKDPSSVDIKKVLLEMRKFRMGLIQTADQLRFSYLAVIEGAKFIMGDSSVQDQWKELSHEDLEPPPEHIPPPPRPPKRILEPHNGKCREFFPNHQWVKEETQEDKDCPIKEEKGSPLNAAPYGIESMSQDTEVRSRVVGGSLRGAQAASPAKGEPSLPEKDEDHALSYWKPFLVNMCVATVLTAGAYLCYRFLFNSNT
Chain of His tagged PTPN2 (TC45) protein (P17706 other isoform, or with tags, fused parts or gaps): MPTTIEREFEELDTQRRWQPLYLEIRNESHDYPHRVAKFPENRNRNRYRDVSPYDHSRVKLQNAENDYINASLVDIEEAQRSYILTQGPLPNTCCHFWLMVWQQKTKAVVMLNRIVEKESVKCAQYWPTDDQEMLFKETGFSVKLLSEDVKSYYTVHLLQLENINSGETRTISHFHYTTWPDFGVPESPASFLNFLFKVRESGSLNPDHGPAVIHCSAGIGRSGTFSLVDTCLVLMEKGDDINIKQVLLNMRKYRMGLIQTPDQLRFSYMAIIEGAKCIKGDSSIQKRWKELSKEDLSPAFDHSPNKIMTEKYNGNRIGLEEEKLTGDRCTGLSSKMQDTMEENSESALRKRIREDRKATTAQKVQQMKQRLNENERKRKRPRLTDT

Row | Structure (SMILES) | IC50 [2] [nM] | EC50 [3, 5] [nM] | EC50 [3, 6] [nM] | IC50 [1, 4] [nM] | IC50 ([1]; enzyme 0.5 nM, substrate 2 μM) [nM] | Dihydrobenzofuran or Indoline x-fold>potency biochemical [1] | Dihydrobenzofuran or Indoline x-fold>potency cellular [3]
1 | O=C1CN(c2c(O)cc3c(c2F)C[C@H](CNCCC2CCOCC2)O3)S(=O)(=O)N1 [Compound 125, 5-[(2R)-4-fluoro-6-hydroxy-2-({[2-(oxan-4-yl)ethyl]amino}methyl)-2,3-dihydro-1-benzofuran-5-yl]-1λ^6,2,5-thiadiazolidine-1,1,3-trione] | 10 to 100 | 3090 | 3090 | 8.32 | < 10 | 2.2 | 10.4
2 | O=C1CN(c2c(O)cc3c(c2F)C[C@H](CNCCCc2ccccc2)O3)S(=O)(=O)N1 [Compound 127, 5-[(2R)-4-fluoro-6-hydroxy-2-{[(3-phenylpropyl)amino]methyl}-2,3-dihydro-1-benzofuran-5-yl]-1λ^6,2,5-thiadiazolidine-1,1,3-trione] | 10 to 100 | 10800 | 10800 | 4.05 | < 10 | 4.7 | >4.6
3 | CC1=C(CCNC[C@H]2Cc3c(cc(O)c(N4CC(=O)NS4(=O)=O)c3F)O2)C(C)(C)CCC1 [Compound 128, 5-[(2R)-4-fluoro-6-hydroxy-2-({[2-(2,6,6-trimethylcyclohex-1-en-1-yl)ethyl]amino}methyl)-2,3-dihydro-1-benzofuran-5-yl]-1λ^6,2,5-thiadiazolidine-1,1,3-trione] | 10 to 100 | > 50000 | > 50000 | 1.81 | < 10 | 12.5 | ~1.0
4 | O=C1CN(c2c(O)cc3c(c2F)C[C@H](CNCC2CC(c4ccccc4)C2)O3)S(=O)(=O)N1 (stereo partly drawn) [Compound 129, 5-[(2R)-4-fluoro-6-hydroxy-2-({[(3-phenylcyclobutyl)methyl]amino}methyl)-2,3-dihydro-1-benzofuran-5-yl]-1λ^6,2,5-thiadiazolidine-1,1,3-trione] | 10 to 100 | 1290 | 1290 | 2.51 | < 10 | 3.3 | >38.8
5 | O=C1CN(c2c(O)cc3c(c2F)C[C@H](CNCC2CCC(C(F)(F)F)CC2)O3)S(=O)(=O)N1 (stereo partly drawn) [Compound 130, 5-{(2R)-4-fluoro-6-hydroxy-2-[({[4-(trifluoromethyl)cyclohexyl]methyl}amino)methyl]-2,3-dihydro-1-benzofuran-5-yl}-1λ^6,2,5-thiadiazolidine-1,1,3-trione] | 10 to 100 | > 50000 | > 50000 | 4.38 | < 10 | 6.1 | ~1.0
6 | O=C1CN(c2c(O)cc3c(c2F)C[C@H](CNCC2(CF)CC2)O3)S(=O)(=O)N1 [Compound 131, 5-{(2R)-4-fluoro-2-[({[1-(fluoromethyl)cyclopropyl]methyl}amino)methyl]-6-hydroxy-2,3-dihydro-1-benzofuran-5-yl}-1λ^6,2,5-thiadiazolidine-1,1,3-trione] | 10 to 100 | 22100 | 22100 | 20.9 | 10 to 100 | 2.4 | >2.3

The next lines start with results.

Row | IC50 [2] [nM] | EC50 [3, 5] [nM] | EC50 [3, 6] [nM] | Structure (SMILES) | IC50 [1, 4] [nM] | IC50 ([1]; enzyme 0.5 nM, substrate 2 μM) [nM] | Dihydrobenzofuran or Indoline x-fold>potency biochemical [1] | Dihydrobenzofuran or Indoline x-fold>potency cellular [3]
7 | > 100 | 4690 |  | CC(C)CNC[C@@H]1Cc2c(cc(O)c(N3CC(=O)NS3(=O)=O)c2F)N1 [Compound 132, 5-[(2S)-4-fluoro-6-hydroxy-2-{[(2-methylpropyl)amino]methyl}-2,3-dihydro-1H-indol-5-yl]-1λ^6,2,5-thiadiazolidine-1,1,3-trione] |  | 10 to 100 |  | 
8 | 10 to 100 | 1240 |  | CC(C)CNC[C@H]1Cc2c(cc(O)c(N3CC(=O)NS3(=O)=O)c2F)N1 [Compound 133, 5-[(2R)-4-fluoro-6-hydroxy-2-{[(2-methylpropyl)amino]methyl}-2,3-dihydro-1H-indol-5-yl]-1λ^6,2,5-thiadiazolidine-1,1,3-trione] |  | 10 to 100 |  | 
9 | 10 to 100 | 947 |  | CCC(CC)CNC[C@H]1Cc2c(cc(O)c(N3CC(=O)NS3(=O)=O)c2F)N1 [Compound 134, 5-[(2R)-2-{[(2-ethylbutyl)amino]methyl}-4-fluoro-6-hydroxy-2,3-dihydro-1H-indol-5-yl]-1λ^6,2,5-thiadiazolidine-1,1,3-trione] |  | 10 to 100 |  | 
10 | 10 to 100 | 756 |  | CCCNC[C@H]1Cc2c(cc(O)c(N3CC(=O)NS3(=O)=O)c2F)N1 [Compound 135, 5-{(2R)-4-fluoro-6-hydroxy-2-[(propylamino)methyl]-2,3-dihydro-1H-indol-5-yl}-1λ^6,2,5-thiadiazolidine-1,1,3-trione] |  | 10 to 100 |  | 
11 | 10 to 100 | 1230 |  | COCCNC[C@H]1Cc2c(cc(O)c(N3CC(=O)NS3(=O)=O)c2F)N1 [Compound 136, 5-[(2R)-4-fluoro-6-hydroxy-2-{[(2-methoxyethyl)amino]methyl}-2,3-dihydro-1H-indol-5-yl]-1λ^6,2,5-thiadiazolidine-1,1,3-trione] |  | 10 to 100 |  | 
12 | 10 to 100 | 904 |  | O=C1CN(c2c(O)cc3c(c2F)C[C@H](CNCC2CCC2)N3)S(=O)(=O)N1 [Compound 137, 5-[(2R)-2-{[(cyclobutylmethyl)amino]methyl}-4-fluoro-6-hydroxy-2,3-dihydro-1H-indol-5-yl]-1λ^6,2,5-thiadiazolidine-1,1,3-trione] |  | 10 to 100 |  | 
